The results in this text go back to ChEMBL document CHEMBL6074657, “Discovery and Synthesis of Heterobifunctional Degraders of Rearranged during Transfection (RET) Kinase” (J Med Chem, 2024).

A short description of data set [1]: in vitro. Conditions: rat, liver microsomes. (In general: Liver microsomes are a subcellular fraction often used to study metabolism.)
Data set [2] is described as follows: in vitro. Conditions: mouse, liver microsomes.
Data set [3] can be described thus: in vitro. To be noted: human, liver microsomes.
Data set [4] in a line: in vitro. Conditions: human, liver microsomes. The source holds these as a separate data set.
The nature of data set [5]: in vitro. To be noted: mouse, liver microsomes. This is another data set of the same source.
Data set [6] in a line: Intrinsic clearance in mouse. To be noted: in vivo. The data set is classed as ADME, organism-based.
Data set [7] is described as follows: Metabolic stability in rat liver microsomes assessed as half-life. The data set is classed as ADME, Microsome.
Data set [8] is described as follows: Bioavailability in mouse at 50 mg/kg, sc. To be noted: in vivo. In kind it is ADME, organism-based.
Data set [9] in a line: Cmax in athymic nude mouse at 75 mg/kg, sc measured after 24 hrs by LC/MS analysis. In kind it is ADME, organism-based. To be noted: in vivo.
Data set [10] is described as follows: Cmax in athymic nude mouse at 25 mg/kg, sc measured after 24 hrs by LC/MS analysis. In kind it is ADME, organism-based. To be noted: in vivo.
A short description of data set [11]: Tmax in athymic nude mouse at 8 to 75 mg/kg, sc by LC/MS analysis. The data set is classed as ADME, organism-based. To be noted: in vivo, dose 8-75 mg/kg.
Data set [12] in a line: Cmax in athymic nude mouse at 8 mg/kg, sc measured after 24 hrs by LC/MS analysis. The data set is classed as ADME, organism-based. To be noted: in vivo.

The term fraction remaining denotes what is left of the initial amount, in per cent. With `COc1ccc(CN2[C@@H]3C[C@H]2CN(c2ccc(-c4cc(OCC(C)(C)O)cn5ncc(C#N)c45)cn2)C3)cn1`, the results for the amount remaining at 10 min in [1], in [2] and in data set [3] were 89%, 63% and 58%, respectively.

For orientation: half-life means the time needed for the level to fall by half in the phase considered. In the case of `CCOc1cc(-c2ccc(N3CCC(CN4CCC(C(=O)N5CC(N6CCC(c7ccc8c(c7)C(=O)N(C7CCC(=O)NC7=O)C8)CC6)C5)CC4)(NC(=O)c4cc(F)ccc4F)CC3)nc2)c2c(C#N)cnn2c1` (stereo not given), the half-life in [4] was greater than 2 h; in data set [5] it was 1.57 h.

For the compound `CCOc1cc(-c2ccc(N3CCC(CN4CCN(C(=O)CCN5CCC(c6ccc7c(N8CCC(=O)NC8=O)nn(C)c7c6)CC5)CC4)(NC(=O)c4cc(F)ccc4F)CC3)nc2)c2c(C#N)cnn2c1`, the half-life in [4] came to 0.7 h; in data set [5], 1.73 h. The share remaining at 10 min in data set [1] turned out to be 75%; in data set [2], 88%; in data set [3] it was 81%.

With `CCOc1cc(-c2ccc(N3CCC(CN4CCN(C(=O)CCN5CCC(c6ccc7c(c6)C(=O)N([C@@H]6CCC(=O)NC6=O)C7)CC5)CC4)(NC(=O)c4cc(F)ccc4F)CC3)nc2)c2c(C#N)cnn2c1`, the half-life in data set [4] was 1.28 h; in [5], greater than 2 h. The amount remaining at 10 min in data set [1] was determined as 100%; in data set [2], 100%; in data set [3], 98%.

As for `CCOc1cc(-c2ccc(N3CCC(CN4CCN(C(=O)CCN5CCC(c6ccc7c(c6)C(=O)N([C@H]6CCC(=O)NC6=O)C7)CC5)CC4)(NC(=O)c4cc(F)ccc4F)CC3)nc2)c2c(C#N)cnn2c1`, the half-life in data set [4] and in [5] was greater than 2 h in each case. Besides, the amount remaining at 10 min was found to be 100% in data set [1], 80% in data set [2] and 100% in [3].

Take `CCOc1cc(-c2ccc(N3CCC(CN4CCN(C(=O)CCN5CCC(c6ccc7c(c6)CN(C6CCC(=O)NC6=O)C7=O)CC5)CC4)(NC(=O)c4cc(F)ccc4F)CC3)nc2)c2c(C#N)cnn2c1` (stereo not given): the half-life in data set [4] is 1.02 h; in [5], 0.95 h. In addition, the share remaining at 10 min in data set [1] came out at 94%; in data set [2] it was 82%; in data set [3], 85%.

For the compound `CCOc1cc(-c2ccc(N3CCC(CN4CCN(C(=O)CCCCCCN5CCC(c6ccc7c(c6)CN(C6CCC(=O)NC6=O)C7=O)CC5)CC4)(NC(=O)c4cc(F)ccc4F)CC3)nc2)c2c(C#N)cnn2c1` (stereo not given), the half-life in data set [4] was determined as 0.583 h; in data set [5], 1.55 h. Moreover, the amount remaining at 10 min in data set [1] is 88%; in [2] it was 80%; in data set [3] it was 78%.

With `CCOc1cc(-c2ccc(N3CCC(CN4CCN(C(=O)CCCCN5CCC(c6ccc7c(c6)CN(C6CCC(=O)NC6=O)C7=O)CC5)CC4)(NC(=O)c4cc(F)ccc4F)CC3)nc2)c2c(C#N)cnn2c1` (stereo not given), the results for the half-life in data set [4] and in data set [5] were 1.4 h and 1.42 h, respectively. Besides, the share remaining at 10 min turned out to be 100% in data set [1], 85% in data set [2] and 88% in data set [3].

Consider `CCOc1cc(-c2ccc(N3CCC(COCC(=O)N4CCC(CN5CCN(c6ccc7c(c6)CN(C6CCC(=O)NC6=O)C7=O)CC5)CC4)(NC(=O)c4cc(F)ccc4F)CC3)nc2)c2c(C#N)cnn2c1` (stereo not given), for which the amount remaining at 10 min in data set [1] amounted to 81%; in data set [2], 68%; in data set [3], 10%.

The term CLint scaled denotes the rate of metabolic loss divided by the concentration. Read a low CLint scaled as slow turnover. Take `CCOc1cc(-c2ccc(N3CCC(CN4CCN(C(=O)CCCCCCN5CCN(c6ccc7c(c6)CN(C6CCC(=O)NC6=O)C7=O)CC5)CC4)(NC(=O)c4cc(F)ccc4F)CC3)nc2)c2c(C#N)cnn2c1` (stereo not given): the values for the half-life in [4] and in data set [5] were 0.133 h and 0.467 h, respectively. The share remaining at 10 min in data set [1] came to 84%; in [2], 70%; in data set [3] it was 40%. This compound returned a CLint scaled in data set [6] of 32 mL/min/kg.

Turning to `CCOc1cc(-c2ccc(N3CCC(CN4CCN(C(=O)CCN5CCC(c6ccc7c(c6)C(=O)N(C6CCC(=O)NC6=O)C7)CC5)CC4)(NC(=O)c4cc(F)ccc4F)CC3)nc2)c2c(C#N)cnn2c1` (stereo not given), the results for the half-life in [4] and in [5] were 0.867 h and 0.933 h, respectively. Besides, the amount remaining at 10 min was 89% in [1], 85% in data set [2] and 82% in [3].

With `CCOc1cc(-c2ccc(N3CCC(CN4CCN(C(=O)C5CC6(C5)CC(N5CCN(c7ccc8c(c7)CN(C7CCC(=O)NC7=O)C8=O)CC5)C6)CC4)(NC(=O)c4cc(F)ccc4F)CC3)nc2)c2c(C#N)cnn2c1` (stereo not given), the half-life was greater than 2 h in [4] and 1.53 h in [5]. Moreover, the share remaining at 10 min came out at 100% in [1], 81% in data set [2] and 84% in [3].

Usually bioavailability stands for dose-corrected exposure relative to a reference, in per cent. A lower bioavailability goes with poor availability. A word on the Cmax: it is the highest concentration seen after dosing. Broadly, the Tmax is the time from dosing to the highest level. On to `CCOc1cc(-c2ccc(N3CCC(CN4CCN(C(=O)C5CC(N6CCC(c7ccc8c(c7)C(=O)N(C7CCC(=O)NC7=O)C8)CC6)C5)CC4)(NC(=O)c4cc(F)ccc4F)CC3)nc2)c2c(C#N)cnn2c1` (stereo not given), for which the half-life in data set [4] is 1.48 h; in data set [7], greater than 2 h; in data set [5] it was greater than 2 h. The compound also had a bioavailability in data set [8] of 30%. Further, the Cmax in data set [9] came to 8.09 µM; in data set [10], 4.3 µM; in [12] it was 0.708 µM. Moreover, in data set [11], the time of peak concentration (Tmax) stood at 1 h.

In the case of `CCOc1cc(-c2ccc(N3CCC(CN4CCN(C(=O)CCN5CCC(c6ccc7c(c6)C(=O)N(C6CCC(=O)NC6=O)C7)CC5)CC4)(NC(=O)c4ncccc4F)CC3)nc2)c2c(C#N)cnn2c1` (stereo not given), the values for the share remaining at 10 min in [1], in data set [2] and in data set [3] were 97%, 100% and 79%, respectively.
